pKd: −log10 of the molar value.

The assay deals with T1, Human (6-His) Sortilin (Homo sapiens, UniProt Q99523).
T1 sequence (Q99523 78-831): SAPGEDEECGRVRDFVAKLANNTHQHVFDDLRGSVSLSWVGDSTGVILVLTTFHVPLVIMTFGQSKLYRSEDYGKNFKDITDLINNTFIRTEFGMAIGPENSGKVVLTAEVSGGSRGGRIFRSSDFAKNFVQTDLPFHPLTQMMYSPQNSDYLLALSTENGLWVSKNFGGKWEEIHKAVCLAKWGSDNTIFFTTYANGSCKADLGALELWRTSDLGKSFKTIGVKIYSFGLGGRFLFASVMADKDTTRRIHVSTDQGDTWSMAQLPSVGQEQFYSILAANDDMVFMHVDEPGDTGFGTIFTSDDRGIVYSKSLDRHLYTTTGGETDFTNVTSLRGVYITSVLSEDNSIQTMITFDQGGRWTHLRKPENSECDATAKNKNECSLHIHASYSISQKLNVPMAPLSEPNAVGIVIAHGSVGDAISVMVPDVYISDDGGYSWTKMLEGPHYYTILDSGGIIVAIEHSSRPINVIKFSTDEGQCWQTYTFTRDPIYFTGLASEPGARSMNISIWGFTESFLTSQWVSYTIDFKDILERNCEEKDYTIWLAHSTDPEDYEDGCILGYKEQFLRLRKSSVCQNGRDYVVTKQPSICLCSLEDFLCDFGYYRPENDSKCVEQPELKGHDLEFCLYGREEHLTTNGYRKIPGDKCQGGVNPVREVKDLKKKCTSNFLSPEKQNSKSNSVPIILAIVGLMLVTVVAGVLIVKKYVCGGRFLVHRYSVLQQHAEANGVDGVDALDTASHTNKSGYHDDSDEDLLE
As to the kind of experiment: biochemical.
`CC(C)(C)CCC(Nc1ccccc1)c1nnn[nH]1` (racemic) [Example 39, N-phenyl[4,4-dimethyl-1-(2H-tetraazol-5-yl)pentyl]amine] showed a pKd of 5.55.
The result for `CC(C)CC(Nc1cccnc1)c1nnn[nH]1` (racemic) [Example 63, [3-methyl-1-(2H-tetraazol-5-yl)butyl]-3-pyridylamine] reads 4.33; that for `CC(C)CC(Nc1ccccc1)c1nnn[nH]1` (racemic) [Example 67, [3-methyl-1-(2H-tetraazol-5-yl)butyl]aniline], 3.95; that for `COc1ccc2c(NC(CCC(C)(C)C)c3nnn[nH]3)ncnc2c1` (racemic) [Example 85, [4,4-dimethyl-1-(2H-tetraazol-5-yl)pentyl](7-methoxy-4-quinazolinyl)amine], 7.04.
The result for `CC(C)(C)CCC(Nc1ncnc2cc(C(F)(F)F)ccc12)c1nnn[nH]1` (racemic) [Example 87, [4,4-dimethyl-1-(2H-tetraazol-5-yl)pentyl][7-(trifluoromethyl)-4-quinazolinyl]amine] reads 6.45; that for `Cc1nc(NC(CCC(C)(C)C)c2nnn[nH]2)c2ccccc2n1` (racemic) [Example 89, [4,4-dimethyl-1-(2H-tetraazol-5-yl)pentyl](2-methyl-4-quinazolinyl)amine], 7.07.
For `Cc1nc(N[C@@H](CCC(C)(C)C)C(=O)O)c2ccccc2n1` [Example 118, (S)-5,5-Dimethyl-2-((2-methylquinazolin-4-yl)amino)hexanoic acid] the value was 7.74; for `CC(C)(C)CC[C@H](Nc1nc(C2CC2)nc2ccccc12)C(=O)O` [Example 119, (S)-2-((2-Cyclopropylquinazolin-4-yl)amino)-5,5-dimethylhexanoic acid], 7.85.

Broadly, the pKd is the Kd on a negative log10 scale, so that one unit is a factor of ten. Low readings indicate a high Kd, high ones a low Kd.

Values taken from patent publication US20260285802A1, “MODULATORS OF SORTILIN ACTIVITY” (priority 2023, published 2026).
